Results from patent US20200268864A1, “CANCER VACCINE COMPOSITIONS AND METHODS FOR USING SAME TO TREAT CANCER” (Dana-Farber Cancer Institute, Inc., priority 2017, published 2020).
“Also recorded” adds a separate entry of the source.

How the values were obtained:
[1] = test system: PP tumors (Pten−/−; Trp53−/−); assay: PP tumor growth after intratumoral injection of PBM or PP cells plus olaparib; type: in vivo, mouse; details: 10^6 cells IT on day 1, 5, 9; olaparib 50 mg/kg/day IP from day 1
Description: All animal experiments described in this study were performed according to the animal protocols approved by the DFCI Institutional Animal Care and Use Committee. Pten^−/−; Trp53^−/− (termed PP) mammary epithelial tumor cells were derived from syngeneic FVB/N genetically engineered mouse model of breast tumors driven by concurrent loss of PTEN and P53 (K14-Cre/Pten^L/L, Trp53^L/L). 10^6 PP cells in 100 μl of 40% Matrigel® Matrix (Corning) in DMEM were injected into the mammary fat pad of FVB/N1 mice. When tumors were about 100-200 mm^3 in volume, three injections of 10^6 of Trp53^−/−; Brca1^−/−; c-Myc (termed PBM) ovarian surface epithelial tumor cells or PP cells were administered intraturnorally (IT) on day 1, 5, and 9, respectively. Mice were also administered 50 mg/kg/day of olaparib (AZD2281) in 10% DMSO via intraperitoneal injection (IP) from day 1. Olaparib was prepared by diluting 100 mg/ml stocks in DMSO with 10% of 2-hydroxyl-propyl-β-cyclodextrine (Sigma) in PBS. In another cohort of PP tumor, two doses of DMXAA (Sigma, 500 μg/dose) resuspended in 7.5% of NaHCO3 or vehicle control were injected IT over a one-week period. Tumor volume was calculated using the formula: V=0.52×length×width×width.

[2] = test system: PPM cells; assay: Cytosolic dsDNA (PicoGreen) and micronuclei staining, PPM cells; type: cell-based, mouse; details: 2.5 μM, 24 h
Description: PBM and PPM cells were cultured on chambered cell culture slides (BD Falcon). Cells were treated with 2.5 μM olaparib or vehicle control (DMSO) for 24 hours. Following the treatment, cells were incubated with culture media containing PicoGreen double-stranded DNA stain (200-fold dilution, Life Technologies). After one-hour incubation, cells were fixed with 4% paraformaldehyde in PBS (Santa Cruz Biotechnology) for 10 minutes. Cells were then washed twice with PBS and stained with 300 nM DAPI (Thermo Fisher Scientific) for 10 minutes. Coverslips were mounted using ProLong Diamond Antifade Mountant (Thermo Fisher Scientific). Staining was imaged using a Leica SP5X laser scanning confocal microscope.

[3] = test system: PBM tumor tissues; assay: Gene Set Enrichment Analysis of PBM tumor tissues; type: in vivo, mouse; details: 18 days of treatment, vs vehicle; panel of 4604 genes
Description: RNA was isolated from tumor samples as described above, sequenced on the ion Torrent platform per manufacturer's instructions using a custom AmpliSeq panel targeting 4604 murine genes relevant to our studies, and raw data was processed using the Torrent Suite and AmpliSeqRNA plugin to give read counts per gene. Differential gene expression analyses were carried out using DESeq2 with default parameters to obtain log 2 fold change (MAP) and adjusted p-values (Benjamini-Hochberg procedure) (Love et al. (2014) Genorme Biol. 15:550). Genes were ranked by log 2 fold change (MAP), and GSEA were carried out using the GSEAPreranked tool (Mootha et al. (2003) Nat. Genet. 34:267-273; Subramanian et al. (2005) Proc. Natl. Acad. Sci. USA 102:15545-15550). PCA were carried out using DESeq2.

[4] = test system: PD-L1 on PBM tumor cells; assay: PD-L1 expression on PBM tumor cells (RT-qPCR, flow cytometry); design: species or system mouse; details: PBM tumors in vivo and cultured PBM cells
Description: Tumors were first mechanically disrupted by chopping, then chemically digested in collagenase buffer (8 mL DMEM, 0.1 mL 1M HEPES, 0.5 mL FBS, 0.2 mL Pen/Strep, 1 m, 10× collagenase/hyaluronidase (Stemcell Technologies), 0.2 mL of 1 mg/mL DNase I (Stemcell Technologies) at 37° C. for 45 min. Single-cell suspensions of spleen and lymph nodes were obtained by mashed through a 70 um strainer using the plunger of a 3 mL or 5 mL syringe. Single cells suspensions were treated with red blood lysis buffer (4 mL NH4Cl+1 mL PBS with 2% calf serum) and washed with FACS buffer. Single cells suspensions were incubated with LIVE/DEAD Fixable Aqua Dead Cell Stain (Life Technologies, Cat # L34965) for 30 min and then blocked with anti-CD16/32 (BioLegend, clone 93) for 20 min on ice. Samples were then incubated with appropriate antibodies for 30 min. on ice. The Foxp3 staining buffer set (eBioscience, Cat #00-5523-00) was applied for intracellular markers staining. For the intracellular cytokine analysis, cells were stimulated with Leukocyte Activation Cocktail (BD Biosciences, Cat #550583) at 37° C. for 5 hours prior to FACS staining. […] Flow cytometry was performed on an LSR II (BD Biosciences) or LSRFortessa™ HTS (BD Biosciences) at the DFCI flow cytometry core facility, and all the data were analyzed using FlowJo software. […]

O=C(c1cc(Cc2n[nH]c(=O)c3ccccc23)ccc1F)N1CCN(C(=O)C2CC2)CC1 [olaparib, Olaparib]
PP tumor growth [1]: suppressed the growth of PP tumors
cytosolic dsDNAs and micronuclei [2]: not
GSEA: expression of immune-related gene sets [3]: markedly upregulated expression of genes associated with immune response, T-cell activation and interferon-γ (IFNγ) response
expression of immune-inhibitory ligand PD-L1 on tumor cells [4]: highly enhanced expression; also recorded: significantly increased expression
